{"source": "patent EP0429304A2", "about": "“Pyridone-carboxylic acid derivatives and their use as veterinary medicines” (SHIONOGI SEIYAKU KABUSHIKI KAISHA trading under the name of …, priority 1989, dated 1991)", "key": {"[1]": {"test_system": "Streptococcus sp (Str.sp) SNO6119", "test": "In vitro sensitivity test", "type": "cell-based", "settings": "25°C, 40 to 48 hours"}, "[2]": {"test_system": "Pasteurella piscicida (P.pis) No. 2", "test": "In vitro sensitivity test", "type": "cell-based", "settings": "25°C, 40 to 48 hours", "summary_of_the_method": "(§1)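 Bacteria were of animal origin. MS strains were grown by liquid dilution in Frey medium with 12 % pig-serum and 0.01 % βNAD at 37°C for 7 days. S.au was tested by agar dilution on Mueller Hinton agar, 37°C for 20 to 24 hours. P.pis was grown on 1.5 % NaCl heart infusion agar at 25°C for 40 to 48 hours.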"}, "[3]": {"test_system": "TS-resistant strain of MG", "type": "in vivo, chicken", "settings": "10-days chicken, 1.2 x 10³ CFU/fowl; for Infectious index Left air sack + / Infectious index Left air sack ++ / Infectious index Left air sack +++ / Infectious index Left air sack - / Infectious index Right air sack + / Infectious index Right air sack ++ / Infectious index Right air sack +++ / Infectious index Right air sack -: count of fowl"}, "[4]": {"test_system": "TS-resistant MG", "test": "Experimental MG infection to chicken, through injection", "type": "in vivo", "settings": "5 fowl tested, 10-days chicken, 3.1 x 10³ CFU/fowl; for Infectious index Left air sack + (number of fowl) / Infectious index Right air sack + (number of fowl): grade + = slight infection; for Infectious index Left air sack ++ (number of fowl) / Infectious index Right air sack ++ (number of fowl): grade ++ = considerable infection; for Infectious index Left air sack +++ (number of fowl) / Infectious index Right air sack +++ (number of fowl): grade +++ = severe infection; for Infectious index Left air sack - (number of fowl) / Infectious index Right air sack - (number of fowl): grade - = no infection"}, "[5]": {"test_system": "Salmonella typhimurium (S.typhi) 13311", "test": "In vitro sensitivity test (agar dilution method)", "type": "cell-based", "settings": "37°C, 20 to 24 hours"}, "[6]": {"test_system": "Escherichia coli (E.coli) JC-2", "test": "In vitro sensitivity test (agar dilution method)", "type": "cell-based", "settings": "37°C, 20 to 24 hours"}, "[7]": {"test_system": "Staphylococcus aureus (S.au) 209P", "test": "In vitro sensitivity test (agar dilution method)", "type": "cell-based", "settings": "37°C, 20 to 24 hours", "summary_of_the_method": "(§2)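 MS (liquid dilution): Frey medium + 12 % pig-serum + 0.01 % βNAD, 37°C, 7 days. S.au (agar dilution): Mueller Hinton agar, 37°C, 20 to 24 hours. P.pis: heart infusion agar + 1.5 % NaCl, 25°C, 40 to 48 hours. All strains animal-origin.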"}, "[8]": {"test_system": "Hemophilus paragallinarum (H.pg) 221", "test": "In vitro sensitivity test (agar dilution method)", "type": "cell-based", "settings": "agar dilution, 37°C, 20 hours, 10 % CO₂"}, "[9]": {"test_system": "Hemophilus pleuropneumonia (H.pp) M-1", "test": "In vitro sensitivity test (agar dilution method)", "type": "cell-based", "settings": "37°C, 20 hours, 10 % CO₂"}, "[10]": {"test_system": "Bordetella bronchiseptica (B.br) ABU-1", "test": "In vitro sensitivity test (agar dilution method)", "type": "cell-based", "settings": "37°C, 20 to 24 hours"}, "[11]": {"test_system": "Escherichia coli (E.coli) E-17, chicken-origin strain isolated from the field", "test": "In vitro sensitivity test (agar dilution method)", "type": "cell-based", "settings": "37°C, 20 to 24 hours", "summary_of_the_method": "as §2"}, "[12]": {"test_system": "Hemophilus paragallinarum (H.pg) S-1", "test": "In vitro sensitivity test (agar dilution method)", "type": "cell-based", "settings": "agar dilution, 37°C, 20 hours, 10 % CO₂"}, "[13]": {"test_system": "Mycoplasma hyopneumoniae (Mh) ST-11", "test": "In vitro sensitivity test (liquid dilution method)", "type": "cell-based", "settings": "37°C, 7 days"}, "[14]": {"test_system": "Mycoplasma gallisepticum (MG) S6", "test": "In vitro sensitivity test (liquid dilution method)", "type": "cell-based", "settings": "37°C, 7 days"}, "[15]": {"test_system": "Mycoplasma gallisepticum (MG) T-7-T, TS-resistant strain isolated from the field", "test": "In vitro sensitivity test (liquid dilution method)", "type": "cell-based", "settings": "37°C, 7 days"}, "[16]": {"test_system": "Mycoplasma synoviae (MS) F10-2as", "test": "In vitro sensitivity test (liquid dilution method)", "type": "cell-based", "settings": "37°C, 7 days", "summary_of_the_method": "as §1"}, "[17]": {"test_system": "Mycoplasma synoviae (MS) 1853", "test": "In vitro sensitivity test (liquid dilution method)", "type": "cell-based", "settings": "37°C, 7 days", "summary_of_the_method": "as §1"}}, "note": "Read-outs that look alike come from different tables or passages of the source.", "data": [{"compound": "N[C@H]1CCC[C@H]2CN(c3c(F)cc4c(=O)c(C(=O)O)cn(C5CC5)c4c3F)CC[C@H]21", "note": "(relative stereo) [I-6]", "values": [{"measurement": "In vitro Sensitivity Test Str.sp SNO6119", "setting": "[1]", "value": 0.39, "unit": "µg/mL"}, {"measurement": "In vitro Sensitivity Test P.pis No. 2", "setting": "[2]", "value": 0.78, "unit": "µg/mL"}, {"measurement": "Infectious index Left air sack +", "setting": "[3]; oral 3.13 mg/kg", "value": 0}, {"measurement": "Infectious index Left air sack ++", "setting": "[3]; oral 3.13 mg/kg", "value": 0}, {"measurement": "Infectious index Left air sack +++", "setting": "[3]; oral 3.13 mg/kg", "value": 0}, {"measurement": "Infectious index Left air sack -", "setting": "[3]; oral 3.13 mg/kg", "value": 5}, {"measurement": "Infectious index Right air sack +", "setting": "[3]; oral 3.13 mg/kg", "value": 0}, {"measurement": "Infectious index Right air sack ++", "setting": "[3]; oral 3.13 mg/kg", "value": 0}, {"measurement": "Infectious index Right air sack +++", "setting": "[3]; oral 3.13 mg/kg", "value": 0}, {"measurement": "Infectious index Right air sack -", "setting": "[3]; oral 3.13 mg/kg", "value": 5}, {"measurement": "Infectious index Left air sack +", "setting": "[3]; oral 6.25 mg/kg", "value": 1}, {"measurement": "Infectious index Left air sack ++", "setting": "[3]; oral 6.25 mg/kg", "value": 0}, {"measurement": "Infectious index Left air sack +++", "setting": "[3]; oral 6.25 mg/kg", "value": 0}, {"measurement": "Infectious index Left air sack -", "setting": "[3]; oral 6.25 mg/kg", "value": 4}, {"measurement": "Infectious index Right air sack +", "setting": "[3]; oral 6.25 mg/kg", "value": 1}, {"measurement": "Infectious index Right air sack ++", "setting": "[3]; oral 6.25 mg/kg", "value": 4}, {"measurement": "Infectious index Right air sack +++", "setting": "[3]; oral 6.25 mg/kg", "value": 0}, {"measurement": "Infectious index Right air sack -", "setting": "[3]; oral 6.25 mg/kg", "value": 0}, {"measurement": "Infectious index Left air sack +", "setting": "[3]; oral 12.5 mg/kg", "value": 0}, {"measurement": "Infectious index Left air sack ++", "setting": "[3]; oral 12.5 mg/kg", "value": 0}, {"measurement": "Infectious index Left air sack +++", "setting": "[3]; oral 12.5 mg/kg", "value": 0}, {"measurement": "Infectious index Left air sack -", "setting": "[3]; oral 12.5 mg/kg", "value": 5}, {"measurement": "Infectious index Right air sack +", "setting": "[3]; oral 12.5 mg/kg", "value": 0}, {"measurement": "Infectious index Right air sack ++", "setting": "[3]; oral 12.5 mg/kg", "value": 4}, {"measurement": "Infectious index Right air sack +++", "setting": "[3]; oral 12.5 mg/kg", "value": 1}, {"measurement": "Infectious index Right air sack -", "setting": "[3]; oral 12.5 mg/kg", "value": 0}, {"measurement": "Number of fowl having air sack lesions", "setting": "[3]; oral 3.13 mg/kg", "value": 0}, {"measurement": "Number of fowl having air sack lesions", "setting": "[3]; oral 6.25 mg/kg", "value": 5}, {"measurement": "Number of fowl having air sack lesions", "setting": "[3]; oral 12.5 mg/kg", "value": 5}, {"measurement": "Number of fowl having air sack lesions", "setting": "[4]; Dose 1.56 mg/kg", "value": 0}, {"measurement": "Infectious index Left air sack + (number of fowl)", "setting": "[4]; Dose 1.56 mg/kg", "value": 0}, {"measurement": "Infectious index Right air sack + (number of fowl)", "setting": "[4]; Dose 1.56 mg/kg", "value": 0}, {"measurement": "Infectious index Left air sack ++ (number of fowl)", "setting": "[4]; Dose 1.56 mg/kg", "value": 0}, {"measurement": "Infectious index Right air sack ++ (number of fowl)", "setting": "[4]; Dose 1.56 mg/kg", "value": 0}, {"measurement": "Infectious index Left air sack +++ (number of fowl)", "setting": "[4]; Dose 1.56 mg/kg", "value": 0}, {"measurement": "Infectious index Right air sack +++ (number of fowl)", "setting": "[4]; Dose 1.56 mg/kg", "value": 0}, {"measurement": "Infectious index Left air sack - (number of fowl)", "setting": "[4]; Dose 1.56 mg/kg", "value": 5}, {"measurement": "Infectious index Right air sack - (number of fowl)", "setting": "[4]; Dose 1.56 mg/kg", "value": 5}, {"measurement": "Number of fowl having air sack lesions", "setting": "[4]; Dose 3.13 mg/kg", "value": 0}, {"measurement": "Infectious index Left air sack + (number of fowl)", "setting": "[4]; Dose 3.13 mg/kg", "value": 0}, {"measurement": "Infectious index Right air sack + (number of fowl)", "setting": "[4]; Dose 3.13 mg/kg", "value": 0}, {"measurement": "Infectious index Left air sack ++ (number of fowl)", "setting": "[4]; Dose 3.13 mg/kg", "value": 0}, {"measurement": "Infectious index Right air sack ++ (number of fowl)", "setting": "[4]; Dose 3.13 mg/kg", "value": 0}, {"measurement": "Infectious index Left air sack +++ (number of fowl)", "setting": "[4]; Dose 3.13 mg/kg", "value": 0}, {"measurement": "Infectious index Right air sack +++ (number of fowl)", "setting": "[4]; Dose 3.13 mg/kg", "value": 0}, {"measurement": "Infectious index Left air sack - (number of fowl)", "setting": "[4]; Dose 3.13 mg/kg", "value": 5}, {"measurement": "Infectious index Right air sack - (number of fowl)", "setting": "[4]; Dose 3.13 mg/kg", "value": 0}, {"measurement": "In vitro Sensitivity Test S.typhi 13311", "setting": "[5]", "value": 0.2, "unit": "µg/mL"}, {"measurement": "In vitro Sensitivity Test E.coli JC-2", "setting": "[6]", "value": 0.1, "unit": "µg/mL"}, {"measurement": "In vitro Sensitivity Test S.au 209P", "setting": "[7]", "value": "≦0.0125 µg/ml"}, {"measurement": "In vitro Sensitivity Test H.pg 221", "setting": "[8]", "value": ">1.56", "unit": "µg/mL"}, {"measurement": "In vitro Sensitivity Test H.pp M-1", "setting": "[9]", "value": 0.2, "unit": "µg/mL"}, {"measurement": "In vitro Sensitivity Test B.br ABU-1", "setting": "[10]", "value": 3.13, "unit": "µg/mL"}, {"measurement": "In vitro Sensitivity Test E.coli E-17", "setting": "[11]", "value": 0.2, "unit": "µg/ml"}, {"measurement": "In vitro Sensitivity Test H.pg S-1", "setting": "[12]", "value": ">1.56", "unit": "µg/mL"}, {"measurement": "In vitro Sensitivity Test Mh ST-11", "setting": "[13]", "value": "<0.025", "unit": "µg/mL"}, {"measurement": "In vitro Sensitivity Test MG S6", "setting": "[14]", "value": 0.00625, "unit": "µg/mL"}, {"measurement": "In vitro Sensitivity Test MG T-7-T", "setting": "[15]", "value": 0.00625, "unit": "µg/mL"}, {"measurement": "In vitro Sensitivity Test MS F10-2as", "setting": "[16]", "value": 0.2, "unit": "µg/ml"}, {"measurement": "In vitro Sensitivity Test MS 1853", "setting": "[17]", "value": 0.2, "unit": "µg/mL"}]}]}
